Measured values published in patent US20040023884A1, “Biologically active peptides from functional domains of bactericidal/permeability-increasing protein and uses thereof” (priority 1993, published 2004).
Entries after “also recorded” stand apart in the source; their conditions may differ.

What was measured:
[1] = test system: E. coli 0111:B4 (smooth) bacteria; test: Radial diffusion bactericidal assay, E. coli 0111:B4; format: cell-based; details: radial diffusion; for pmol added to well to achieve a 30 mm^2 bactericidal zone, E. coli O111:B4: PROBIT analysis, E. coli O111:B4 (smooth)
Staphylococcus aureus = test: Radial diffusion bactericidal assay, Staphylococcus aureus; format: cell-based
[2] = test system: L-form of S. aureus ATCC 19640; test: Activity against L-forms of gram-positive bacteria; format: cell-based
Description: The bactericidal capacity of BPI peptides provided by the invention was also tested against Gram-positive bacteria (See Table VIII A). […] In addition, peptides were tested for their activity against L-forms of gram-positive bacteria, such as the L-form of S. aureus ATCC 19640.

[3] = test system: rough mutant E. coli J5 bacteria; test: Radial diffusion bactericidal assay, E. coli J5; format: cell-based; details: for pmol added to well to achieve a 30 mm^2 bactericidal zone, E. coli J5 / bactericidal activity (in words): radial diffusion; for pmol added to well to achieve a 30 mm^2 bactericidal zone, E. coli J5: PROBIT analysis, E. coli J5 (rough); for bactericidal activity (in words): E. coli J5
In short: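 Log-phase bacteria (3 h at 37 °C in tryptic soy broth), washed in 10 mM sodium phosphate pH 7.4, were embedded at 4×10^6 CFU/mL in underlayer agarose. BPI proteolytic fragments (5 or 10 μL) went into 3 mm wells for 3 h at 37 °C, then agarose overlay and overnight 37 °C growth. Clear zones were measured by micrometer.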

Klebsiella pneumoniae = test: Radial diffusion bactericidal assay, Klebsiella pneumoniae; format: cell-based
E. coli O18:K1:H7 = test: Radial diffusion bactericidal assay, E. coli O18:K1:H7; format: cell-based; details: FIG. 11b; up to about 2000 pmol
E. coli 0113 LPS = test: Limulus Amoebocyte Lysate (LAL) inhibition assay; format: biochemical
Description: BPI proteolytic fragments produced according to Example 1 were subjected to a Limulus Amoebocyte Lysate (LAL) inhibition assay to determine LPS binding properties of these fragments. Specifically, each of the fragments were mixed in Eppendorf tubes with a fixed concentration of E. coli 0113 LPS (4 ng/mL final concentration) and incubated at 37° C. for 3 hours with occasional shaking. Addition controls comprising rBPI23 at 0.05 μg/mL were also tested. Following incubation, 360 μL of Dulbecco's phosphate buffered saline (D-PBS; Grand Island Biological Co. (GIBCO), Long Island, N.Y.) were added per tube to obtain an LPS concentration of 200 pg/mL for the LAL assay. Each sample was then transferred into Immulon II strips (Dynatech, Chantilly, Va.) in volumes of 50 μl per well.
Limulus amoebocyte Lysate (Quantitative Chromogenic LAL kit, Whitaker Bioproducts, Inc., Walkersville, Md.) was added at 50 μL per well and the wells were incubated at room temperature for 25 minutes. Chromogenic substrate was then added at a volume of 100 μL per well and was well mixed. After incubation for 20 to 30 minutes at room temperature, the reaction was stopped with addition of 100 μL of 25% (v/v) acetic acid. Optical density at 405 nm was then measured in a multiplate reader (Model Vmax, […], Menlo Park, Calif.) with the results shown in FIG. 2 in terms of percent inhibition of LPS. In this Figure, the filled circle represents rBPI23; the open circle represents Asp-N fragment A3; the x represents Asp-N fragment A2, the filled square represents Asp-N fragment A4; the filled triangle represents Asp-N fragment A1A2; the open square represents Asp-N fragment A6a; the small open triangle represents CNBr fragment C3; and the small filled square represents CNBr fragment C1/C5.

[4] = 3H-heparin binding assay (affinity and capacity)
In short: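 Peptide fragments were bound to PVDF-membrane wells and incubated with 3H-heparin in blocking buffer for 1 h at 4 °C. After washing, bound radioactivity was quantified by liquid scintillation counting, with BSA background subtracted; rBPI23 served as positive control.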

E. coli O75 = test: Radial diffusion bactericidal assay, E. coli O75; format: cell-based; details: FIG. 11d; up to about 2000 pmol
E. coli strain 07-K1 = test: Radial diffusion bactericidal assay, E. coli 07-K1; format: cell-based; details: FIG. 10c
Description: BPI proteolytic fragments produced according to Example 1 were screened for bactericidal effects using rough mutant E. coli J5 bacteria in a radial diffusion assay. Specifically, an overnight culture of E. coli J5 was diluted 1:50 into fresh tryptic soy broth and incubated for 3 hours at 37° C. to attain log phase growth of the culture. Bacteria were then pelleted at 3,000 rpm for 5 minutes in a Sorvall RT6000B centrifuge (Sorvall Instruments, Newton, Conn.). 5 mL of 10 mM sodium phosphate buffer (pH 7.4) was added and the preparation was re-pelleted. […] The bacteria were diluted to 4×10^6 CFU/mL in 10 mL of molten underlayer agarose (at approximately 45° C.) and inverted repeatedly to mix in 15 mL polypropylene tubes conventionally used for this purpose.
The entire contents of such tubes were then poured into a level square petri dish and distributed evenly by rocking the dish side-to-side. […] A series of wells were then punched into the hardened agarose using a sterile 3 mm punch attached to a vacuum apparatus. The punch was sterilized with 100% alcohol and allowed to air dry prior to use to avoid contaminating the bacterial culture.
5 or 10 μL of each of the BPI fragments were carefully pipetted into each well. As a negative control, dilution buffer (pH 8.3) was added to a separate well, and rBPI23 at concentrations of 5 μg/mL and 1 μg/mL were also added as positive controls. Each plate was incubated at 37° C. for 3 hours, and then 10 mL of molten overlayer agarose (at approximately 45° C.) was added into the level petri dish, allowed to harden and incubated overnight at 37° C. […] The bacterial zones were measured with a micrometer.
Additional experiments were performed using various other bacteria as target cells to examine the range of bactericidal killing of these BPI functional domain peptides.

Pseudomonas aeruginosa = test: Radial diffusion bactericidal assay, Pseudomonas aeruginosa; format: cell-based; details: FIG. 11a; up to about 2000 pmol
[5] = test system: LPS-stimulated NO production by RAW 264.7 cells; test: LPS-stimulated NO production by RAW 264.7 cells; format: cell-based, mouse
Description: An additional LPS neutralization screening assay for BPI functional domain peptides was developed using an assay for NO production in mouse cells treated with LPS (see Lorsbach et al., 1993, J. Biol. Chem. 268: 1908-1913). In this assay, mouse RAW 264.7 cells (ATCC Accession No. TIB71) were treated with bacterial LPS. The cells were incubated in 96-well plates and stimulated for 2 hours with E. coli 0113 LPS or zymosan, in the presence or absence of _-interferon, rLBP, fetal bovine serum (FBS) or normal human serum (NHS), or rBPI21Δcys. After this incubation, the cells were washed with fresh media and incubated overnight in media containing 10% FCS. The NO released from the cells accumulated in the media and spontaneously converted to nitrite. This nitrite was assayed in situ by the Griess reaction, as follows. The nitrite was reacted with the primary amine of an added sulfanilamide and formed a diazonium salt. This salt was then reacted with added naphthylethylenediamine to form a red azo-dyc. The Griess reaction was performed at room temperature in about 10 minutes. The amount of produced NO was estimated from a standard curve of Griess reaction products determined spectrophotometrically as Absorbance at a wavelength of 550 nm.

[6] = In vivo APTT in heparinized rats; set-up: species or system Sprague-Dawley rats; details: 100 U/kg heparin i.v., test protein 5 minutes later, blood 2 minutes after
Description: The in vivo effect of exemplary BPI combination peptides on APTT in heparinized rats was determined and compared with the in vivo effect of rBPI23. APTT is lengthened by the presence of endogenous or exogenous inhibitors of thrombin formation, such as therapeutically administered heparin. Agents which neutralize the anti-coagulant effects of heparin will reduce the APTT as measured by this test. Sprague-Dawley rats housed under NIH guidelines were administered with 100 U/kg heparin by bolus intravenous injections via the animals' tail vein followed 5 minutes later by administration of varying amounts of test or control protein as compared with rBPI23. The APTT was then determined from blood samples collected from the abdominal aorta 2 minutes after the administration of the test or control protein. The APTT of untreated animals, as well as animals treated only with a BPI peptide, was also determined.

[7] = In vitro heparin-mediated lengthening of APTT / clotting time of heparinized plasma; format: biochemical, human
Description: In vitro, the effect of BPI combination functional domain peptides was determined on heparin-mediated lengthening of activated partial […] (APTT). The APTT is lengthened by the presence of endogenous or exogenous inhibitors of thrombin formation, such as therapeutically administered heparin. Thus, agents which neutralize the anti-coagulant effects of heparin will reduce the APTT measured by the test. Citrated human plasma (200 μL) was incubated for 1 minute at 37° C. with either 15 μL of diluent (0.15 M NaCl, 0.1 M Tris-HCl, pH 7.4) or 15 μL of the diluent also containing 25 μg/mL heparin (187 units/mg). Various concentrations (from 0.0 to 56 μg/mL) of rBPI23, rBPI21Δcys, or BPI combination peptides BPI.29 (the DIII homodimer) and BPI.30 (heterodimer DII+DIII) in a volume of 15 μL were added, followed immediately by 100 μL of thrombin reagent (Catalog No. 845-4, Sigma Chemical Co., St. Louis. MO). Clotting time ([…]) was measured using a BBL Fibrometer (Becton Dickenson Microbiology Systems, Cockeysville, Md.). […] FIG. 12e illustrates the results obtained with BPI.30 on a non-log scale.

IKISGKWKAQKRKLK [BPI.120]
pmol added to well to achieve a 30 mm^2 bactericidal zone, E. coli O111:B4 [1]: b (no detectable activity up to 5 μg/well) | pmol added to well to achieve a 30 mm^2 bactericidal zone, S. aureus (Staphylococcus aureus; radial diffusion, PROBIT analysis, S. aureus): b (no detectable activity up to 5 μg/well) | activity against L-form bacteria (in words) [2]: active against these L-form bacteria | pmol added to well to achieve a 30 mm^2 bactericidal zone, E. coli J5 [3]: b (no detectable activity up to 5 μg/well)

KWKAQKRFLK [BPI.8]
bactericidal activity (in words) ([1]; E. coli 0111:B4): little to no bactericidal activity | pmol added to well to achieve a 30 mm^2 bactericidal zone, E. coli O111:B4 [1]: b (no detectable activity up to 5 μg/well) | bactericidal activity (in words) (Klebsiella pneumoniae; FIG. 11c, up to about 2000 pmol): no bactericidal activity | bactericidal activity (in words) (Klebsiella pneumoniae; FIG. 10d): no bactericidal activity at concentrations of 800 μg/mL | bactericidal activity (in words) (E. coli O18:K1:H7): no bactericidal activity | LAL / LPS inhibition activity (in words) (E. coli 0113 LPS): no significant LPS inhibition activity | heparin binding activity (in words) [4]: little or no heparin binding activity | heparin binding capacity (in words) [4]: low heparin binding capacity | Heparin Capacity ([4]; heparin bound at saturation): 92.2 ng | Kd ([4]; read-out: Heparin Affinity): 574 nM | bactericidal activity (in words) (Staphylococcus aureus; FIG. 10e): no bactericidal activity at concentrations of 800 μg/mL | bactericidal activity (in words) (E. coli O75): no bactericidal activity | bactericidal activity (in words) (E. coli strain 07-K1): low levels of bactericidal activity | bactericidal activity (in words) [3]: little to no bactericidal activity; also recorded: no detectable bactericidal activity against E. coli J5 cells at concentrations of 1000 μg/mL; also recorded: little or no bactericidal activity | pmol added to well to achieve a 30 mm^2 bactericidal zone, E. coli J5 [3]: 25,695.10 pmol | bactericidal activity (in words) (Pseudomonas aeruginosa): no bactericidal activity

B1: rBPI23: recombinant 23 kD amino-terminal fragment, approximately the first 199 amino acid residues of human BPI (protein)
chain: VNPGVVVRISQKGLDYASQQGTAALQKELKRIKIPDYSDSFKIKHLGKGHYSFYSMDIREFQLPSSQISMVPNVGLKFSISNANIKISGKWKAQKRFLKMSGNFDLSIEGMSISADLKLGSNPTSGKPTITCSSCSSHINSVHVHISKSKVGWLIQLFHKKIESALRN
IC50 of inhibition of LPS-stimulated NO production [5]: 0.03 to 0.1 µg/mL | IC50 (E. coli 0113 LPS; read-out: IC50 of inhibition of the LPS-induced LAL reaction): 9 nM | cpm ^3H-Heparin bound ([4]; 100 picomoles of each fragment per well, saturating 3H-heparin 20 μg/mL, mean of duplicate wells ± range): 51,222 ± 1,808 cpm | APTT in heparinized rats (in words) [6]: administration of about 5 mg/kg results in a APTT of the heparinized and BPI-treated animals that is almost the same as the untreated control animals | effect on the clotting time of heparinized blood (in words) ([7]; FIG. 12g): smaller effect | effect on heparin-mediated lengthening of APTT (in words) ([7]; citrated human plasma, 25 μg/mL heparin, 0.0 to 56 μg/mL): inhibits the heparin-mediated lengthening of APTT | bactericidal activity (in words) (E. coli strain 07-K1): no bactericidal activity at concentrations of 100 μg/mL; also recorded: low bactericidal activity even at concentrations of 1000 μg/mL | lowest amount with measurable bactericidal activity [3]: 0.75 pmol/well | bactericidal activity (in words) [3]: showed bactericidal activity
